# Results published in patent US10329317B2, “Quinoline derivative for use in the treatment and prevention of viral infections” (ABIVAX, priority 2015, dated 2019).
# Read-outs that look alike come from different tables or passages of the source.
# Experiments:
# HIV-1 strain YU2 = experiment: HIV-1 production (p24 ELISA) in infected monocyte derived macrophages; type: cell-based
# Procedure: HIV-1 strain YU2 was used to infect monocyte derived-macrophages from three different donors (donors 349, 350 and 351; respectively FIGS. 2A, 2B, and 2C panel) in the presence of increasing concentrations of the (glucuronidated) Compound 1, at 1.5 μM, 10 μM and 30 μM. The viral capsid protein p24 antigen was quantitated using standard ELISA protocol (expressed in pg/mL in y-axis). R-10 corresponds to untreated cells. […] To generate monocyte derived macrophages (MDMs), monocytes were isolated using CD14 microbeads (catalog no. 130-050-201; Miltenyi) and cultured in X-VIVO10 medium (Lonza) supplemented with GM-CSF 1000 U/ml and M-CSF 100 ng/ml for 6 days. Monocytes were seeded at a cell count of 50′000 cells per well in a 96 well plate. After 6 days medium was replaced with X-VIVO10 w/o Cytokines. After 2 days Macrophages were treated with Compound (1) o/n and next day infected with Yu-2 virus for 6 hrs, washed with PBS and cultured in medium containing the compounds for 12 days. Supernatant for p24 Elisa was collected 2 times a week. Cells were treated with 1.5 μM up to 30 μM and p24 antigen levels were monitored in culture supernatant over a 12 day period (R-10 corresponds to untreated cells) (FIG. 2).
# [1] = First-in-man PK: compound (1) plasma levels after single oral ascending dose of compound (2); type: in vivo, human; settings: for AUC(0-t) / AUC(0-inf) / Cmax / half-life / Tmax: male, human, plasma; for AUC(0-t) / AUC(0-inf) / Cmax / half-life: po; for Tmax: read-out: tmax, median
# Procedure: The present document details the pharmacokinetic (PK) results obtained in a first-in-man study with compound (2) consisting in a single oral ascending dose in healthy male subjects. Four (4) dose levels were investigated (50, 100, 150, and 200 mg).
# At each dose level, 6 subjects were included and received a single oral dose of compound (2) so that a total of 24 subjects participated to the study and completed it. No study deviation was identified at the time of the PK analysis and thus, all subjects were included in the PK analysis.
# In this study, plasma levels of compound (1) were measured.
# PK blood sampling was initially defined up to 48 h post-dose.
# Blood samples for assessment of compound (1) plasma levels are scheduled at the following time points: • Day 1 pre-dose, 0.33, 0.66, 1.00, 1.50, 2.00, 2.50, 3.00, 4.00, 6.00, 8.00, 10.00, and 12.00 h post-dose; • Day 2 24.00 and 36.00 h post-dose; • Day 3 48.00 h post-dose; • Day 10 240 h post-dose; • Day 24 576 h post-dose; • Day 45 1080 h post-dose.
# Plasma concentrations were processed throughout the PK software for PK data generation. The PK parameters were calculated by non-compartmental analysis (NCA), using Phoenix® WinNonlin® (Pharsight Corporation) running on a personal computer.
# For the calculation of the PK parameters and characteristics the following rules were applied: • All the plasma concentrations validated provided to the pharmacokineticist were used for the PK analysis. • The actual blood sampling time points related to the preceding administration was used. • At time points in the lag-time between time zero and the first concentration equal or above limit of quantification (LOQ), concentrations below LOQ were set to zero (0). Concentrations below limit of quantification (BLOQ) between 2 concentrations equal or above LOQ were considered as missing data. Trailing concentrations BLOQ were used in calculations. • If pre-dose concentration was missing, it was arbitrary set to zero (0) assuming that expected results would have been BLOQ.
# For each subject receiving the active treatment in each cohort, the following PK parameters of compound (1) were to be derived:
# Cmax The observed maximum concentration measured in plasma was obtained directly from the concentration-time data.
# tmax The time at which Cmax was apparent, identified by inspection of the plasma drug concentration vs. time data by Phoenix® WinNonlin®.
# AUC0-t The area under the concentration-time curve from time zero (pre-dose) to the time of last quantifiable concentration was calculated using a linear trapezoidal method.
# ke The terminal plasma elimination rate-constant was estimated from log-linear regression analysis of the terminal phase of the plasma concentration-time profile. The number of points included in the terminal phase was determined by visual inspection of the semi-log plots of the plasma concentration-time profiles (at least 3). AUC0-∞ The AUC from time 0 to infinity was calculated as AUC0-∞=AUC0-t+AUCt-∞, where AUC0-t is the area under the concentration-time curve from time zero (pre-dose) to the time of last quantifiable concentration calculated using a […] trapezoidal method and AUCt-∞=Ct/ke, where Ct is the measured concentration at time of the last quantifiable concentration t. The extrapolated part of AUC0-∞ must be <20% for the value to be considered as reliable. t1/2 The apparent terminal elimination half-life was calculated as ln 2/ke, where ke is the elimination rate constant during the terminal phase determined by the log-linear regression obtained on at least the 3 last quantifiable concentrations and using actual blood sampling times. The correlation coefficient for the goodness of the fit of the regression line through the data points must be 0.8500 or higher, for the value to be considered reliable.
# [2] = Solubility compared with Compound 2 (statement only); type: physicochemical
smiles,measurement,setting,value
"O=C(O)[C@H]1O[C@@H](N(c2ccc(OC(F)(F)F)cc2)c2ccc3cccc(Cl)c3n2)[C@H](O)[C@@H](O)[C@@H]1O [Compound 1, N-β-glucuronide of 8-chloro-N-(4-(trifluoromethoxy)phenyl)quinolin-2-amine]",inhibition at 30 µM,"HIV-1 strain YU2; Human immunodeficiency virus 1, Primary macrophage, 288 h, primary macrophages, 30 μM, 12 day period, read-out: inhibition of virus replication (p24 antigen in culture supernatant)",≤ 60%
same,toxicity,"HIV-1 strain YU2; macrophages, 1.5 μM up to 30 μM",low toxicity
same,compound (1) plasma concentrations versus parent drug,"[1]; after single oral compound (2), regardless of the dose",markedly higher
same,AUC(0-t),"[1]; 50 mg, 50 mg compound (2) single oral, N=6, read-out: AUC0-t, GM (geometric mean)",196 µg·h/mL
same,AUC(0-t),"[1]; 50 mg, 50 mg compound (2) single oral, N=6, read-out: AUC0-t, Mean",209 µg·h/mL
same,AUC(0-inf),"[1]; 50 mg, 50 mg compound (2) single oral, N=6, read-out: AUC0-∞, GM (geometric mean)",198 µg·h/mL
same,AUC(0-inf),"[1]; 50 mg, 50 mg compound (2) single oral, N=6, read-out: AUC0-∞, Mean",212 µg·h/mL
same,Cmax,"[1]; 50 mg, 50 mg compound (2) single oral, N=6, read-out: Cmax, GM (geometric mean)",2540 ng/mL
same,Cmax,"[1]; 50 mg, 50 mg compound (2) single oral, N=6, read-out: Cmax, Mean",2630 ng/mL
same,half-life,"[1]; 50 mg, 50 mg compound (2) single oral, N=6, read-out: t1/2, GM (geometric mean) (converted)",95.7 h
same,half-life,"[1]; 50 mg, 50 mg compound (2) single oral, N=6, read-out: t1/2, Mean (converted)",97.3 h
same,AUC(0-t),"[1]; 100 mg, 100 mg compound (2) single oral, N=6, read-out: AUC0-t, GM (geometric mean)",468 µg·h/mL
same,AUC(0-t),"[1]; 100 mg, 100 mg compound (2) single oral, N=6, read-out: AUC0-t, Mean",499 µg·h/mL
same,AUC(0-inf),"[1]; 100 mg, 100 mg compound (2) single oral, N=6, read-out: AUC0-∞, GM (geometric mean)",476 µg·h/mL
same,AUC(0-inf),"[1]; 100 mg, 100 mg compound (2) single oral, N=6, read-out: AUC0-∞, Mean",505 µg·h/mL
same,Cmax,"[1]; 100 mg, 100 mg compound (2) single oral, N=6, read-out: Cmax, GM (geometric mean)",5400 ng/mL
same,Cmax,"[1]; 100 mg, 100 mg compound (2) single oral, N=6, read-out: Cmax, Mean",5720 ng/mL
same,half-life,"[1]; 100 mg, 100 mg compound (2) single oral, N=6, read-out: t1/2, GM (geometric mean) (converted)",111 h
same,half-life,"[1]; 100 mg, 100 mg compound (2) single oral, N=6, read-out: t1/2, Mean (converted)",111 h
same,AUC(0-t),"[1]; 150 mg, 150 mg compound (2) single oral, N=6, read-out: AUC0-t, GM (geometric mean)",560 µg·h/mL
same,AUC(0-t),"[1]; 150 mg, 150 mg compound (2) single oral, N=6, read-out: AUC0-t, Mean",659 µg·h/mL
same,AUC(0-inf),"[1]; 150 mg, 150 mg compound (2) single oral, N=6, read-out: AUC0-∞, GM (geometric mean)",563 µg·h/mL
same,AUC(0-inf),"[1]; 150 mg, 150 mg compound (2) single oral, N=6, read-out: AUC0-∞, Mean",664 µg·h/mL
same,Cmax,"[1]; 150 mg, 150 mg compound (2) single oral, N=6, read-out: Cmax, GM (geometric mean)",8270 ng/mL
same,Cmax,"[1]; 150 mg, 150 mg compound (2) single oral, N=6, read-out: Cmax, Mean",9240 ng/mL
same,half-life,"[1]; 150 mg, 150 mg compound (2) single oral, N=6, read-out: t1/2, GM (geometric mean) (converted)",95.7 h
same,half-life,"[1]; 150 mg, 150 mg compound (2) single oral, N=6, read-out: t1/2, Mean (converted)",99.2 h
same,AUC(0-t),"[1]; 200 mg, 200 mg compound (2) single oral, N=6, read-out: AUC0-t, GM (geometric mean)",436 µg·h/mL
same,AUC(0-t),"[1]; 200 mg, 200 mg compound (2) single oral, N=6, read-out: AUC0-t, Mean",559 µg·h/mL
same,AUC(0-inf),"[1]; 200 mg, 200 mg compound (2) single oral, N=6, read-out: AUC0-∞, GM (geometric mean)",438 µg·h/mL
same,AUC(0-inf),"[1]; 200 mg, 200 mg compound (2) single oral, N=6, read-out: AUC0-∞, Mean",560 µg·h/mL
same,Cmax,"[1]; 200 mg, 200 mg compound (2) single oral, N=6, read-out: Cmax, GM (geometric mean)",5900 ng/mL
same,Cmax,"[1]; 200 mg, 200 mg compound (2) single oral, N=6, read-out: Cmax, Mean",7910 ng/mL
same,half-life,"[1]; 200 mg, 200 mg compound (2) single oral, N=6, read-out: t1/2, GM (geometric mean) (converted)",87.8 h
same,half-life,"[1]; 200 mg, 200 mg compound (2) single oral, N=6, read-out: t1/2, Mean (converted)",89.5 h
same,half-life,"[1]; healthy male subjects, single oral 50 to 200 mg compound (2), read-out: elimination half life (t1/2) (converted)",~100 h
same,Tmax,"[1]; 50 mg compound (2) single oral, N=6",4 h
same,Tmax,"[1]; 100 mg compound (2) single oral, N=6",4 h
same,Tmax,"[1]; 150 mg compound (2) single oral, N=6",4 h
same,Tmax,"[1]; 200 mg compound (2) single oral, N=6",6 h
same,time of first quantifiable compound (1) concentration,"[1]; post-dose, 20 subjects out of 24",~40 min
same,solubility relative to Compound 2,[2],more soluble
